Positions count from the first letter of the chain named. Like-named read-outs stand apart in the source and are kept apart here. One block for each compound: values may come before it.
Assays:
MTHFD2 [1] = target: T1, MTHFD2 (Homo sapiens, UniProt P13995); conditions: published values (Yang and MacKenzie 1993); cited from earlier work
T1 construct: 12 amino acids were removed from the unstructured C-terminus of the protein, and a 6-histidine tag added to facilitate purification; 6-histidine tag (C); made in house; host or cells: E. coli One Shot BL21 Star (DE3), pET-30a(+)
T1 sequence (P13995 with tags, fused parts or gaps): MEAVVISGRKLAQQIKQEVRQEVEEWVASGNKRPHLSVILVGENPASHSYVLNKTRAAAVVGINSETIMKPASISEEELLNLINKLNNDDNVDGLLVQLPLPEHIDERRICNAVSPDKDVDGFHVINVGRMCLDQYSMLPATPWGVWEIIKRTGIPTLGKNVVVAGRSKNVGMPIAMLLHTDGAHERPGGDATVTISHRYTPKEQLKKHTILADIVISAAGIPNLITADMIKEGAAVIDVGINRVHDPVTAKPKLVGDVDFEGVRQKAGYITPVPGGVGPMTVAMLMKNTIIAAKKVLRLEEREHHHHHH

MTHFD2 [2] = target: T1, MTHFD2; assay: Enzyme kinetics of recombinant MTHFD2 in the modified 384 well assay; assay type: biochemical; conditions: recombinant MTHFD2, 384 well plate format; read-out: Km, Measured
Description: (§1) The NAD-dependent methylenetetrahydrofolate dehydrogenase/cyclohydrolase activity assay employed in this microtiter well based screen is based on previously published enzymatic assays, with modifications as listed below. The assay was initially reported by Scrimgeour and Huennekens, Biochem. Biophys. Res. Commun. 1960, 2:230-233 and subsequently by Mejia and MacKenzie, The Journal of biological chemistry. 1985; 260:14616-14620). The assay was performed as described with slight modifications (reported assay concentrations in the Mejia et al. assay are provided in brackets below). The modified assay utilized 50 ng of recombinant MTHFD2 protein produced as described in Example 11 per well in 384 well format. In addition, the present assay utilized 30 […], at pH 7.5 (7.3), with 150 uM formaldehyde (2.5 mM), 150 uM tetrahydrofolate (250 uM) and 6 mM MgCl (5 mM). No 2-mercaptoethanol or reducing agents were used in the present assay, which is crucial for detection of cysteine modifying compounds as potential enzyme inhibitors. The assay employed for high-throughput screening for chemical inhibitors used the final endpoint measure of formation of 5,10-methenyltetrahydrofolate by spectrophotometric absorbance at 340 nm.

NCI-60 cancer cell lines = assay: Association between glycine consumption and compound sensitivity (GI50) across the 60 cell lines; assay type: cell-based, human; conditions: NCI public data, FIG. 3
Description: Compound sensitivity data for glutathione biosynthesis and de novo purine biosynthesis inhibitors was obtained from the NCI data repository (October 2009 release). Compound sensitivity was quantified using the GI50 measure (Shoemaker, Nat Rev Cancer. 2006; 6:813-823), defined as the compound concentration inhibiting cell growth by 50%. For those compounds in which multiple experiments with different concentration ranges were available, the experiment with the least degree of saturation was used.
Given the observation that glycine consumption is correlated to rapid cancer cell proliferation (see Examples 1-5, above), the present inventors sought to determine whether glycine consumption predicts sensitivity to particular chemotherapeutic agents. The association between glycine update and sensitivity to 3851 annotated small molecules (data provided to the public by NCI) was examined bioinformatically across the 60 cell lines.

MTHFD2 C145S mutant = target: T2, MTHFD2 C145S mutant (Homo sapiens, UniProt P13995, C145S); assay: Same activity assay on MTHFD2 C145 cysteine to serine mutant; assay type: biochemical
T2 construct: 12 amino acids were removed from the unstructured C-terminus of the protein, and a 6-histidine tag added to facilitate purification; 6-histidine tag (C); made in house
T2 sequence (P13995 with tags, fused parts or gaps C145S): T1 sequence (P13995 with tags, fused parts or gaps) with C111S
Description: as §1, with “nm. […]” for “nm.”

MTHFD2 C166S mutant = target: T3, MTHFD2 C166S mutant (Homo sapiens, UniProt P13995, C166S); assay: Same activity assay on MTHFD2 C166 cysteine to serine mutant; assay type: biochemical
T3 construct: 12 amino acids were removed from the unstructured C-terminus of the protein, and a 6-histidine tag added to facilitate purification; 6-histidine tag (C); made in house
T3 sequence (P13995 with tags, fused parts or gaps C166S): T1 sequence (P13995 with tags, fused parts or gaps) with C132S
Description: as §1, with “nm. […]” for “nm.”

[3] = target: T4, MTHFD2 C145S/C166S mutant (Homo sapiens, UniProt P13995, C145S/C166S); assay: Same activity assay on MTHFD2 C145/C166 double mutant; assay type: biochemical
T4 construct: 12 amino acids were removed from the unstructured C-terminus of the protein, and a 6-histidine tag added to facilitate purification; 6-histidine tag (C); made in house
T4 sequence (P13995 with tags, fused parts or gaps C145S/C166S): T1 sequence (P13995 with tags, fused parts or gaps) with C111S, C132S
Description: as §1, with “nm. […]” for “nm.”

[4] = target: T5, recombinant MTHFD2 protein (human, wild type) (Homo sapiens, UniProt P13995); assay: NAD-dependent methylenetetrahydrofolate dehydrogenase/cyclohydrolase activity assay, 384 well, no reducing agents; assay type: biochemical; conditions: for inhibition of MTHFD2 enzyme in high throughput screen: screen of about 5,100 small molecules, biological duplicate, no reducing agents
T5 construct: 12 amino acids were removed from the unstructured C-terminus of the protein, and a 6-histidine tag added to facilitate purification; 6-histidine tag (C); made in house; host or cells: E. coli One Shot BL21 Star (DE3), pET-30a(+)
T5 sequence (P13995 with tags, fused parts or gaps): T1 sequence (P13995 with tags, fused parts or gaps)
Description: as §1
The assay described in Example 12 was used to screen a library of about 5,100 small molecule agents in the Prestwick chemical library, Known Bioactives Library and Library of Pharmacologically Active Compounds, in biological duplicate. […] Several of the high scoring inhibitors are known cysteine modifiers that could in principle inhibit enzyme activity by modification of cysteine residues.
Three mutant MTHFD2 constructs were generated with Agilent QuikChange Lightening, with cysteine to serine mutations at C145, C166 or both C145/C166. These mutants were retested with three of the compounds identified in the secondary screen (6-hydroxy-DL-DOPA, Celastrol, and Ebselen). […] Given the identification of these cysteine residues, additional structure/medicinal chemistry may be employed to specifically design small molecules that take advantage of these cysteine residues and inhibit MTHFD2 with greater selectivity.

LOX IMVI cells = assay: Rescue of SHMT2-silenced LOX IMVI cells grown in the absence of glycine; assay type: cell-based, human; conditions: supplement 140 μM
Description: (§2) For lentiviral infection, 100,000 cells were seeded in a 6-well dish in 2 mL medium containing 8 μg/ml Polybrene and 100 μl viral supernatant added. Plates were centrifuged at 800×g for 30 minutes at 37° C., and the medium replaced. Twenty-four hours later, cells were selected for infection by the addition of 2 μg/ml puromycin. […] Cells were passaged for >10 cell divisions to ensure stable expression of the shRNA construct. For assessment of SHMT2 knockdown, mRNA was isolated from cells using RNeasy kit (Qiagen), and qRT-PCR was performed for SHMT2 and HPRT1 using the Taqman assay (Applied Biosystems assay ID Hs00193658_m1* and Hs01003267_m1*, respectively), according to manufacturer's instructions. For experiments using A498 and LOX IMVI, cells were infected with either sh1-4 or shCtrl lentivirus and stable expressing cells selected as above. For experiments utilizing NCI-H226, HS-578T, TK10, EKVX, OVCAR-8, U251, A549, HT29, NCI-460 and HCT-116, cells were infected with either sh4 or shCtrl lentivirus and stable expressing cells selected as above. […] For all experiments, cells were counted and cell counts expressed as fold change over time. […] Cells were counted at regular time intervals as described above. All experiments were performed using at least 10 independent cell cultures.

[5] = test system: 10 additional primary cancer cell lines from the NCI-60 panel; conditions: FIG. 1G
Description: as §2

Km (MTHFD2 [2]): 4.1 µM
Structure (SMILES): Nc1nc2c(c(=O)[nH]1)N1CN(c3ccc(C(=O)N[C@@H](CCC(=O)O)C(=O)O)cc3)CC1CN2 (some centres unmarked) [5,10 CH2—THF]
Km (MTHFD2 [1]): 6.7 µM

Structure (SMILES): O=c1[nH]cc(F)c(=O)[nH]1 [5-fluorouracil]
sensitivity of glycine consuming cells to the agent (correlation of glycine consumption with sensitivity) (NCI-60 cancer cell lines): not more sensitive

Structure (SMILES): NC(Cc1cc(O)c(O)cc1O)C(=O)O (stereo not drawn) [6-hydroxy-DL DOPA]
inhibition of C145 mutant MTHFD2 (MTHFD2 C145S mutant): inhibited
inhibition of C166 mutant MTHFD2 (MTHFD2 C166S mutant): inhibited
inhibition of C145/C166 double mutant MTHFD2 [3]: inhibited
inhibition of wild type MTHFD2 with addition of the reducing agent DTT ([4]; plus DTT): not antagonized
inhibition of wild type MTHFD2 ([4]; retest with mutants, FIGS. 9A-C): inhibited
inhibition of MTHFD2 enzyme in high throughput screen [4]: inhibit the enzyme

inhibition of MTHFD2 enzyme in high throughput screen [4]: inhibit the enzyme
Structure (SMILES): O=C1Nc2ccc(I)cc2/C1=C/c1cc(Br)c(O)c(Br)c1 [GW5074]

Km (MTHFD2 [2]): 51.5 µM
Structure (SMILES): NC(=O)c1ccc[n+]([C@@H]2O[C@H](COP(=O)([O-])OP(=O)(O)OC[C@H]3O[C@@H](n4cnc5c(N)ncnc54)[C@H](O)[C@@H]3O)[C@@H](O)[C@H]2O)c1 [NAD+]
Km (MTHFD2 [1]): 56.4 µM

inhibition of MTHFD2 enzyme in high throughput screen [4]: inhibit the enzyme
Structure (SMILES): Clc1ccc(C(c2ccc(Cl)cc2)n2cc[n+](CC(OCc3ccc(Cl)cc3Cl)c3ccc(Cl)cc3Cl)c2)cc1 (centres unmarked) [calmidazolium chloride]

Structure (SMILES): O=CO [formate]
rescue of proliferation of SHMT2-silenced LOX IMVI cells (LOX IMVI cells): failed to rescue

Structure (SMILES): NCC(=O)O [glycine]
rescue by addition of extracellular glycine in rapidly proliferating SHMT2-silenced cancer cells [5]: rescued
rescue of proliferation of SHMT2-silenced LOX IMVI cells (LOX IMVI cells): rescued

Structure (SMILES): NC(=O)CI [iodoacetamide]
inhibition of MTHFD2 enzyme in high throughput screen [4]: inhibit the enzyme

Structure (SMILES): CN(Cc1cnc2nc(N)nc(N)c2n1)c1ccc(C(=O)N[C@@H](CCC(=O)O)C(=O)O)cc1 [methotrexate, Glutamic acid, N-[p-[[(2,4-diamino-6-pteridinyl)methyl]methylamino]benzoyl]-, L-(+)-(8CI)]
sensitivity of glycine consuming cells to the agent (correlation of glycine consumption with sensitivity) (NCI-60 cancer cell lines): uniquely sensitive

Structure (SMILES): O=C1C=CC(=O)C=C1 [para-benzoquinone]
inhibition of MTHFD2 enzyme in high throughput screen [4]: inhibit the enzyme

Structure (SMILES): C=CC1=C(C)c2cc3[nH]c(cc4nc(cc5[nH]c(cc1n2)c(C)c5CCC(=O)O)C(CCC(=O)O)=C4C)c(C)c3C=C [protoporphyrin IX disodium]
inhibition of MTHFD2 enzyme in high throughput screen [4]: inhibit the enzyme

— patent publication US20160032401A1, “Glycine, Mitochondrial One-Carbon Metabolism, and Cancer” (THE GENERAL HOSPITAL CORPORATION, priority 2013, published 2016)
